For this assay, the target named is T1, human GPR84 receptor (Homo sapiens, UniProt Q9NQS5).
T1 construct: host or cells: HEK293, transiently transfected
In words: Gαi biosensor BRET assay (GPR84 antagonism vs agonist ZQ-16). It counts as cell-based. To be noted: HEK293 cells, 200 nmol/L agonist ZQ-16; for inhibition at 10 µM: tested at 10 μM (concentration code D); for IC50: Gαi biosensor BRET assay; for inhibition at 2 µM: tested at 2 μM (concentration code A). In a few lines:
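HEK293 cells transiently expressing GPR84, Gαi2-Rluc8, GFP10-Gγ2 and Gβ1 were pre-incubated with compounds 5 min at 37 °C in Tyrode's buffer pH 7.5, then stimulated with 200 nmol/L ZQ-16 for 5 min at room temperature. BRET2 (acceptor/donor ratio) read after 5 μmol/L coelenterazine 400A, background- and vehicle-corrected.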

This note sets out measurements from patent publication US20260055117A1, “SUBSTITUTED PYRIDONE GPR84 ANTAGONISTS AND USES THEREOF” (Liminal BioSciences Limited, priority 2022, published 2026).

Bounds are passed on as bounds.

T1 sequence (Q9NQS5 whole entry): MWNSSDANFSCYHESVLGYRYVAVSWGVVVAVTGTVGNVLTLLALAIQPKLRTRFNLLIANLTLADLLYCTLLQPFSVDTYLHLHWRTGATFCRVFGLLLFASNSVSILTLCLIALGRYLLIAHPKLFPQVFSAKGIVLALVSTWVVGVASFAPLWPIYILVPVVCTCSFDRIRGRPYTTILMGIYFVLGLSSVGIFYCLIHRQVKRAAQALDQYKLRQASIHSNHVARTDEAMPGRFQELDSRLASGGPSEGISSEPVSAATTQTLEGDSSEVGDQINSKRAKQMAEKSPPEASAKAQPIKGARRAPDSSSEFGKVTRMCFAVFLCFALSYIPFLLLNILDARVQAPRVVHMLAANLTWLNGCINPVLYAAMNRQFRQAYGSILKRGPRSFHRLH

The molecule `Cc1cc(OCC(=O)N(C)C)cc(=O)n1C(C)c1ccc(C#CC2CC2)cc1Cl` (centres unmarked) [Compound I-262] displayed an inhibition at 10 µM greater than 75%.
Same read-out and setting: with `CNS(=O)(=O)COc1cc(C)n([C@H](C)c2ccc(C#CC3CC3)cc2)c(=O)c1` [Compound I-47] the figure was 50 to 75%; with `Cc1cc(OCC(=O)N2CCC3(CC2)CN(C)C3)cc(=O)n1[C@H](C)c1ccc(C#CC2CC2)cc1` [Compound I-203], 50 to 75%.
The same measure, in the same setting: with `Cc1cc(OCCN(C)C)cc(=O)n1[C@H](C)c1ccc(C#CC2CC2)cc1` [Compound I-280] the figure was 50 to 75%.
Still for that read-out and setting: the figure for `Cc1cc(OCC(=O)O)cc(=O)n1[C@H](C)c1ccc(C#CC2CC2)cc1` [Compound I-21] is 50 to 75%.
Molecule `Cc1cc(OCC(=O)N(C)C)cc(=O)n1[C@H](C)c1ccc(C#CC2CC2(F)F)cc1` (some centres unmarked) [Compound I-63] registered a concentration for half-maximal inhibition (IC50) of no more than 300 nM and an inhibition at 10 µM greater than 75%.
Molecule `Cc1cc(OCc2ncccn2)cc(=O)n1[C@H](C)c1ccc(-c2ccc(C3CC3)cc2)cc1` [Compound I-150] yielded an inhibition at 10 µM of less than 25%.
As to `Cc1cc(OCc2nnnn2C2CC2)cc(=O)n1[C@H](C)c1ccc(C#CC2CC2)cc1` [Compound I-331], the inhibition at 2 µM is greater than 75%.
In turn, `Cc1cc(OCC(=O)N(C)C)cc(=O)n1[C@H](C)c1ccc(C#CC2CC2(F)F)c(F)c1` (stereo partly drawn) [Compound I-64, 2-((1-((1R)-1-(4-((2,2-difluorocyclopropyl)ethynyl)-3-fluorophenyl)ethyl)-6-methyl-2-oxo-1,2-dihydropyridin-4-yl)oxy)-N,N-dimethylacetamide] came in with a half-maximal inhibitory concentration (IC50) of no more than 300 nM and an inhibition at 10 µM greater than 75%.
The corresponding values for `Cc1cc(OCC(=O)N(C)C(C)C)cc(=O)n1[C@H](C)c1ccc(C#CC2CC2)cc1` [Compound I-55] are no more than 300 nM and greater than 75%.
`Cc1cc(OCC(=O)N(C)C)cc(=O)n1[C@H](C)c1ccc(C#CC2CC2)cc1Br` [Compound I-87] came in with an inhibition at 10 µM of 50 to 75%.
In turn, `Cc1cc(OCC(=O)N2CCOCC2)cc(=O)n1[C@H](C)c1ccc(C#CC2CC2)cc1` [Compound I-3] yielded an IC50 of no more than 300 nM and an inhibition at 2 µM greater than 75%.
In the same order, the values of `CCc1cc([C@@H](C)n2c(C)cc(OCC(=O)N(C)C)cc2=O)ccc1C#CC1CC1` [Compound I-39] are no more than 300 nM and greater than 75%.
The corresponding values for `Cc1cc(OCC(=O)N2CC(F)C2)cc(=O)n1[C@H](C)c1ccc(C#CC2CC2)cc1` [Compound I-288] are 300 to 1000 nM and greater than 75%.
The corresponding values for `Cc1nc(OCC(=O)N(C)C)cc(=O)n1[C@H](C)c1ccc(C#CC2CC2)cc1` [Compound I-217] are no more than 300 nM and greater than 75%.
Regarding `Cc1cc(OCC2(N(C)C)CC2)cc(=O)n1[C@H](C)c1ccc(C#CC2CC2)cc1` [Compound I-30], the inhibition at 10 µM fell in the range of 50 to 75%.
The same measure, in the same setting: the figure for `Cc1cc(OCc2ncccn2)cc(=O)n1[C@H](C)c1ccc(-c2cnc(C3CC3)cn2)c(F)c1` [Compound I-10] is less than 25%; for `Cc1cc(OCC2(N(C)C)COC2)cc(=O)n1[C@H](C)c1ccc(C#CC2CC2)cc1` [Compound I-36] it is greater than 75%; for `CCCCCCOc1ccc([C@@H](C)n2c(C)cc(OCc3ncccn3)cc2=O)cc1` [Compound I-130] it is less than 25%.
As for `Cc1cc(OCC(=O)N2CC3(CCO3)C2)cc(=O)n1[C@H](C)c1ccc(C#CC2CC2)cc1` [Compound I-289], the IC50 is no more than 300 nM and the inhibition at 10 µM is greater than 75%.
The corresponding values for `Cc1cc(OCC(=O)N(C(C)C)C(C)C)cc(=O)n1[C@H](C)c1ccc(C#CC2CC2)cc1` [Compound I-347] are 300 to 1000 nM and greater than 75%.
`Cc1cc(OCC(=O)N2CCC2)cc(=O)n1[C@H](C)c1ccc(C#CC2CC2)c(F)c1` [Compound I-23] came in with a half-maximal inhibitory concentration (IC50) of no more than 300 nM and an inhibition at 2 µM greater than 75%.
With `Cc1cc(OCC(=O)NC2COC2)cc(=O)n1[C@H](C)c1ccc(C#CC2CC2)cc1` [Compound I-52], the inhibition at 10 µM lay in the range of 50 to 75%.
On the same count and under the same terms, the figure for `Cc1cc(OCC(N(C)C)C(F)(F)F)cc(=O)n1[C@H](C)c1ccc(C#CC2CC2)c(F)c1` (some centres unmarked) [Compound I-85] is 50 to 75%.
Still for that read-out and setting: the figure for `Cc1cc(/C=C2\SC(=O)NC2=O)cc(=O)n1[C@H](C)c1ccc(C#CC2CC2)cc1` [Compound I-339] is greater than 75%; for `Cc1cc(OCC(=O)N2CCOCC2)cc(=O)n1[C@H](C)c1ccc(C#CC2CC2)c(F)c1` [Compound I-27] it is greater than 75%.
`Cc1cc(OCC(=O)N2CCCC2)cc(=O)n1[C@H](C)c1ccc(C#CC2CC2)c(F)c1` [Compound I-25] showed an IC50 of no more than 300 nM and an inhibition at 2 µM greater than 75%.
Regarding `Cc1cc(OCC(=O)NC2CN(C)C2)cc(=O)n1[C@H](C)c1ccc(C#CC2CC2)cc1` [Compound I-58], the inhibition at 10 µM lay in the range of 50 to 75%.
Same read-out and setting: with `Cc1cc(OCC2COCCO2)cc(=O)n1C(C)c1ccc(OCC2CCN(C(=O)C3CC3)CC2)c(F)c1` (centres unmarked) [Compound I-16] the figure was less than 25%.
`Cc1nc(OCC(=O)N2CCCC2)cc(=O)n1[C@H](C)c1ccc(C#CC2CC2)cc1` [Compound I-235] came in with a half-inhibitory concentration (IC50) of no more than 300 nM and an inhibition at 2 µM greater than 75%.
In the same order, the values of `Cc1cc(OCC(=O)N2C3CCC2COC3)cc(=O)n1[C@H](C)c1ccc(C#CC2CC2)cc1` [Compound I-324] are no more than 300 nM and greater than 75%.
In the same order, the values of `Cc1cc(OCC(=O)N(C)CC(F)(F)F)cc(=O)n1[C@H](C)c1ccc(C#CC2CC2)cc1` [Compound I-232] are no more than 300 nM and greater than 75%.
In the case of `Cc1cc(OCS(N)(=O)=O)cc(=O)n1[C@H](C)c1ccc(C#CC2CC2)c(F)c1` [Compound I-46], the inhibition at 10 µM was greater than 75%.
`Cc1cc(OCC(=O)N2CCC3(CC3)C2)cc(=O)n1[C@H](C)c1ccc(C#CC2CC2)cc1` [Compound I-319]: the IC50 is no more than 300 nM and the inhibition at 2 µM is greater than 75%.
The corresponding values for `Cc1cc(OCC(=O)N2CCC2)cc(=O)n1[C@H](C)c1ccc(C#CC2CC2)cc1` [Compound I-1, (R)-4-(2-(azetidin-1-yl)-2-oxoethoxy)-1-(1-(4-(cyclopropylethynyl)phenyl)ethyl)-6-methylpyridin-2 (1H)-one] are no more than 300 nM and greater than 75%.
For the molecule `Cc1cc(OCC(=O)N(C)C)c(O)c(=O)n1[C@H](C)c1ccc(C#CC2CC2)cc1` [Compound I-286], the inhibition at 10 µM is 50 to 75%.
For the molecule `Cc1cc(OCc2cnc(NS(=O)(=O)C(F)(F)F)nc2)cc(=O)n1[C@H](C)c1ccc(C#CC2CC2)cc1` [Compound I-82], the IC50 was no more than 300 nM and the inhibition at 2 µM was greater than 75%.
`Cc1cc(OCC(=O)N2CCC[C@H]2C#N)cc(=O)n1[C@H](C)c1ccc(C#CC2CC2)cc1` [Compound I-305]: the IC50 was no more than 300 nM and the inhibition at 2 µM was greater than 75%.
Consider `Cc1cc(OCC(=O)N(C)C)cc(=O)n1[C@H](C)c1ccc(C(=O)O)cc1` [Compound I-265], for which the inhibition at 10 µM was less than 25%.
`Cc1cc(OCC(=O)O)cc(=O)n1[C@@H](C)c1ccc(C#CC2CC2)cc1` [Compound I-303] returned an inhibition at 10 µM of less than 25%.
The molecule `Cc1cc(OCC(=O)N2CC(F)(F)C2)cc(=O)n1[C@H](C)c1ccc(C#CC2CC2)c(F)c1` [Compound I-24] showed a half-maximal inhibitory concentration (IC50) of 300 to 1000 nM and an inhibition at 10 µM greater than 75%.
Molecule `Cc1cc(OCC(=O)N2CCC[C@@H]2C(F)(F)F)cc(=O)n1[C@H](C)c1ccc(C#CC2CC2)cc1` [Compound I-254] returned an IC50 of no more than 300 nM and an inhibition at 2 µM greater than 75%.
As for `COC1CN(C(=O)COc2cc(C)n([C@H](C)c3ccc(C#CC4CC4)cc3)c(=O)c2)C1` [Compound I-294], the IC50 was no more than 300 nM and the inhibition at 2 µM was greater than 75%.
With `Cc1cc(OCC(=O)N2CCC(F)(F)CC2)cc(=O)n1[C@H](C)c1ccc(C#CC2CC2)cc1` [Compound I-8], the inhibition at 10 µM is greater than 75%.
Molecule `Cc1cc(OCC(=O)N(C)C)cc(=O)n1[C@H](C)c1ccc(C#CC2(C)CC2)cc1` [Compound I-80] registered an IC50 of no more than 300 nM and an inhibition at 10 µM greater than 75%.
In turn, `Cc1cc(OCC(=O)N2CC[C@@H](S(C)(=O)=O)C2)cc(=O)n1[C@H](C)c1ccc(C#CC2CC2)cc1` [Compound I-252] had an IC50 of no more than 300 nM and an inhibition at 2 µM greater than 75%.
As for `Cc1cc(OCC(=O)N(C)C2CN(C)C2)cc(=O)n1[C@H](C)c1ccc(C#CC2CC2)cc1` [Compound I-59], the inhibition at 10 µM is greater than 75%.
`Cc1cc(OCC(=O)N2CC(C)C2)cc(=O)n1[C@H](C)c1ccc(C#CC2CC2)cc1` [Compound I-290] yielded an IC50 of no more than 300 nM and an inhibition at 2 µM greater than 75%.
The corresponding values for `Cc1cc(OCc2nnn(C)n2)cc(=O)n1[C@H](C)c1ccc(C#CC2CC2)cc1` [Compound I-261] are 300 to 1000 nM and greater than 75%.
Take `Cc1cc(OCc2ncccn2)cc(=O)n1[C@H](C)c1ccc(C#CC2(C)CC2)cc1` [Compound I-77]: the inhibition at 10 µM lay within 50 to 75%.
In turn, `Cc1cc(OCC(=S)N(C)C)cc(=O)n1[C@H](C)c1ccc(C#CC2CC2)cc1` [Compound I-279] showed an inhibition at 2 µM greater than 75%.
Molecule `Cc1cc(OCCN2CCCC2)cc(=O)n1[C@H](C)c1ccc(C#CC2CC2)cc1` [Compound I-281] returned an inhibition at 10 µM of 25 to 50%.
The molecule `Cc1cc(OCC(=O)N2CCCC23CC3)cc(=O)n1[C@H](C)c1ccc(C#CC2CC2)cc1` [Compound I-320] showed an IC50 of no more than 300 nM and an inhibition at 10 µM greater than 75%.
`Cc1cc(OCC(=O)N(C)CC(=O)O)cc(=O)n1[C@H](C)c1ccc(C#CC2CC2)cc1` [Compound I-350]: the inhibition at 2 µM is greater than 75%.
